Test results from patent publication US20250368666A1, “INDAZOLE COMPOUNDS” (TYRA BIOSCIENCES, INC., priority 2022, published 2025).

What was measured:
[1] = biological target: T1, FGFR1 (Homo sapiens, UniProt P11362); assay: Kinase binding assay (kinase-tagged T7 phage, affinity beads, qPCR), Kd; conditions: read-out: FGFR1 (Kd nM)
T1 construct: made in house; host or cells: E. coli (BL21-derived), T7 phage
Procedure, shortened: (§1)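 Competition binding of compounds against kinase-tagged T7 phage captured on immobilised biotinylated ligand beads; bead-bound kinase quantified by qPCR of eluates. 11-point 3-fold dilution, 0.9% DMSO final; Kd from Hill fit with slope fixed at −1.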

[2] = biological target: T2, FGFR2 (Homo sapiens, UniProt P21802); assay: as above; conditions: read-out: FGFR2 (Kd nM)
T2 construct: made in house; host or cells: E. coli (BL21-derived), T7 phage
Procedure, shortened: as §1

[3] = biological target: T3, FGFR3 (Homo sapiens, UniProt P22607); assay: as above; conditions: read-out: FGFR3 (Kd nM)
T3 construct: made in house; host or cells: E. coli (BL21-derived), T7 phage
Procedure, shortened: as §1

[4] = biological target: T4, FGFR3 (V555M) (Homo sapiens, UniProt P22607, V555M); assay: as above; conditions: V555M mutant; read-out: FGFR3 (V555M) (Kd nM)
T4 construct: made in house; host or cells: E. coli (BL21-derived), T7 phage
Procedure, shortened: as §1

[5] = biological target: T5, FGFR4 (Homo sapiens, UniProt P22455); assay: as above; conditions: read-out: FGFR4 (Kd nM)
T5 construct: made in house; host or cells: E. coli (BL21-derived), T7 phage
Procedure, shortened: as §1

[6] = tested on: KATO-III cell line (FGFR2 amplification); assay: Cancer cell line cell viability assay (Cell Titer-Glo), 72 hr; assay type: cell-based; conditions: Homo sapiens, KATO III
Procedure, shortened: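 Intracellular ATP was measured by Cell Titer-Glo 2.0 luminescence after cells were incubated with compound dilutions (top 3 μM, 4-fold, 9 doses). Values were expressed relative to DMSO-treated cells and IC50 was calculated from a variable-slope dose-response curve.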

[7] = tested on: KG-1 cell line (FGFR 1-fusion); assay: as above; assay type: cell-based; conditions: Homo sapiens, KG-1, KG-1 cell line (FGFR1-fusion)
Procedure, shortened: (§2)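 5,000-20,000 cells/well o/n; cpd 9-pt 4x dil from 3 μM, n=3; 37° C/5% CO2; CTG 2.0 lumi; % DMSO ctrl; 4PL IC50.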

[8] = tested on: RT112/84 cell line (FGFR3-fusion); assay: as above; assay type: cell-based; conditions: Homo sapiens, RT112/84, RT112/84 cell line (FGFR3-fusion)
Procedure, shortened: as §2

[9] = tested on: MDA-MB-453 cell line (FGFR4-Y367C); assay: Cancer cell line cell viability assay (Cell Titer-Glo), 120 hr; assay type: cell-based; conditions: Homo sapiens
Procedure, shortened: as §2

T1 sequence (P11362 22-822): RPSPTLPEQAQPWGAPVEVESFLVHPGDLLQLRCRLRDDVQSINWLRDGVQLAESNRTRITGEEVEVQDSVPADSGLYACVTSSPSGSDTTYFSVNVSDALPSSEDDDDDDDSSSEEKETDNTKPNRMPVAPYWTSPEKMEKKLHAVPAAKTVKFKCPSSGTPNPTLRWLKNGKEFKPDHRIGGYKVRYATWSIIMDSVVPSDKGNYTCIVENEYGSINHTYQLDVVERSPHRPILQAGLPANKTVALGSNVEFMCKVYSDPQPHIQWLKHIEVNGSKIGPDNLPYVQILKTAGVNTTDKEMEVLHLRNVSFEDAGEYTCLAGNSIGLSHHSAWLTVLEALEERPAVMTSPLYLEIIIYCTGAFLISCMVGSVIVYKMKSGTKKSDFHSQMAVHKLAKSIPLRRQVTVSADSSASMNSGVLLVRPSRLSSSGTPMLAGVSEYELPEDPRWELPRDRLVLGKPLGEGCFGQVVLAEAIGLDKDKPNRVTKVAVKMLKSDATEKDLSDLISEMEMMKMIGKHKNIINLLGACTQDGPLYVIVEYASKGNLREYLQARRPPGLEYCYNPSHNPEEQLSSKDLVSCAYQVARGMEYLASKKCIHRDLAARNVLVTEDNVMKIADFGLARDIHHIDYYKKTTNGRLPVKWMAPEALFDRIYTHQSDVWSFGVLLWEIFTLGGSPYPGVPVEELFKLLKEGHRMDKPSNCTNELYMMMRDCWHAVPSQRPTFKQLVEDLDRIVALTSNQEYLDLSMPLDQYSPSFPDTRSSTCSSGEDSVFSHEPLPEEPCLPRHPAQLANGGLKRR
T3 sequence (P22607 23-806): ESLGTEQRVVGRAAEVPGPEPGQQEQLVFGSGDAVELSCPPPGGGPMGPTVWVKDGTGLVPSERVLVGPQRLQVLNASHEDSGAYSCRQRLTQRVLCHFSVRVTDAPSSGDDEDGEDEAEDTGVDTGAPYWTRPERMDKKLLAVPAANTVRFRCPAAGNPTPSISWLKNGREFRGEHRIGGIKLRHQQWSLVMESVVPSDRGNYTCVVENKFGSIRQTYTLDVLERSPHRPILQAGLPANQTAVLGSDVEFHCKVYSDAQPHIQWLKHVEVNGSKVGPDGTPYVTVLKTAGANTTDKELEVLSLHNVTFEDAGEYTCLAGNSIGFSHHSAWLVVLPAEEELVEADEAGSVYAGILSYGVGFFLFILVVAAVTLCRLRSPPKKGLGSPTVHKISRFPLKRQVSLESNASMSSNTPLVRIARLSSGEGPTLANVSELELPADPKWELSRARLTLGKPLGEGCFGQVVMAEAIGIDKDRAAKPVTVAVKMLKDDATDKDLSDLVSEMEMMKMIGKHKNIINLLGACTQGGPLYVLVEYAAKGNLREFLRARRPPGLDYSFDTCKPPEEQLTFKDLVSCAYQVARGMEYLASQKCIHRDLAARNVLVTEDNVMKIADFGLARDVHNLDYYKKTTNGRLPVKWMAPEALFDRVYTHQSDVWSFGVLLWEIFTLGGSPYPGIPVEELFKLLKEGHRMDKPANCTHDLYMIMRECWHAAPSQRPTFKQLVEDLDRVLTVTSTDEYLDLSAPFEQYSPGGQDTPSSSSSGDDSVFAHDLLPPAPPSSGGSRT
T4 sequence (P22607 23-806 V555M): as the sequence (P22607 23-806) above, with V533M counted along it
T2 sequence (P21802 22-821): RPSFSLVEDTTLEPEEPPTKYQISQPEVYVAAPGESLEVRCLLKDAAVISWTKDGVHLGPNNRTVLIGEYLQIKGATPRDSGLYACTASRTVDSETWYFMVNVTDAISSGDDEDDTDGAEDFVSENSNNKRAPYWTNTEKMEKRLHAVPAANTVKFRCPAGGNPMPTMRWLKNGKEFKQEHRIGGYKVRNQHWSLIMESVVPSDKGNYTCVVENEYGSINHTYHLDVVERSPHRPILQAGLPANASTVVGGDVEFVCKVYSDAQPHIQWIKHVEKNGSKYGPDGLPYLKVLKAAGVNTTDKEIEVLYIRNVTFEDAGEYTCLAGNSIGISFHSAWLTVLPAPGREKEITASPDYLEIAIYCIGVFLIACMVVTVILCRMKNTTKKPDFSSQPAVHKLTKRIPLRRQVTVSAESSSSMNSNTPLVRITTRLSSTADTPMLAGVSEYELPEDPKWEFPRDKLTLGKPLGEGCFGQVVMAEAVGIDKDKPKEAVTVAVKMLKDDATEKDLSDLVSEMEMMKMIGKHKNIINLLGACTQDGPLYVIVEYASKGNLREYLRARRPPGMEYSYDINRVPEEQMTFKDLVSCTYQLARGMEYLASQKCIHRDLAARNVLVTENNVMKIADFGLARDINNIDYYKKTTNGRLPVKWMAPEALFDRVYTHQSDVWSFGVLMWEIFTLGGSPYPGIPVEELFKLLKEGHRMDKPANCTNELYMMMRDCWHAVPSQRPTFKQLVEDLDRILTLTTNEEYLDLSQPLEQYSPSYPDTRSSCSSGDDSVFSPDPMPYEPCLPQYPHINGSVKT
T5 sequence (P22455 22-802): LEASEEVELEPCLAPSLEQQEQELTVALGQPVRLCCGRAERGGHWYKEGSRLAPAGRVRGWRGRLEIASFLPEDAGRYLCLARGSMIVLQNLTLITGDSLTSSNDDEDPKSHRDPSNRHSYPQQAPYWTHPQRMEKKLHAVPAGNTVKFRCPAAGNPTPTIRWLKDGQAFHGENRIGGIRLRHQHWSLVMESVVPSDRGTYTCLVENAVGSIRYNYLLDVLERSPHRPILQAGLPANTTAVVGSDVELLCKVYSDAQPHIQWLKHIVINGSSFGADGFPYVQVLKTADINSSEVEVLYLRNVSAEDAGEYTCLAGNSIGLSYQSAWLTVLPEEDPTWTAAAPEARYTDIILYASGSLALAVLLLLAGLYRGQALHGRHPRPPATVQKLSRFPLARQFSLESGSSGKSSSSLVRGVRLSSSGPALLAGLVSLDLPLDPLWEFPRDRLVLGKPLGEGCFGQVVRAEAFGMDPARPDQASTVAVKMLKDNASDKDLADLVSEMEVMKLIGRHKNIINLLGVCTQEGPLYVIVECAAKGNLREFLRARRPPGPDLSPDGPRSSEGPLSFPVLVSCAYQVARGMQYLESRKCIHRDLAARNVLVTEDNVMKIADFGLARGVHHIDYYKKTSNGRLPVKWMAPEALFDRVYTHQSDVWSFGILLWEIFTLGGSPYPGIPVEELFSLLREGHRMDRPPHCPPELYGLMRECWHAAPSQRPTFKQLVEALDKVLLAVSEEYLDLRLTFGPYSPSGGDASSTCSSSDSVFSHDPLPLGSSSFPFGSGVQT

Row | Structure (SMILES) | Kd [1] [nM] | Kd [2] [nM] | Kd [3] [nM] | Kd [4] [nM] | Kd [5] [nM] | IC50 [6] [nM] | IC50 [7] [nM] | IC50 [8] [nM] | IC50 [9] [nM]
1 | C[C@@H](Oc1ccc2[nH]nc(-c3cnc(N4CC(N)(c5cnn(C)c5)C4)c(F)c3)c2c1)c1c(Cl)cncc1Cl [Example 277, (R)-1-(5-(5-(1-(3,5-dichloropyridin-4-yl)ethoxy)-1H-indazol-3-yl)-3-fluoropyridin-2-yl)-3-(1-methyl-1H-pyrazol-4-yl)azetidin-3-amine] | 1 to 50 | – | 1 to 50 | – | – | 0.1 to 50 | 50 to 200 | 0.1 to 50 | 0.1 to 50
2 | C[C@@H](Oc1ccc2[nH]nc(-c3ccc(N4CC(N)(Cc5ccnn5C)C4)nn3)c2c1)c1c(Cl)cncc1Cl [Example 281, (R)-1-(6-(5-(1-(3,5-dichloropyridin-4-yl)ethoxy)-1H-indazol-3-yl)pyridazin-3-yl)-3-((1-methyl-1H-pyrazol-5-yl)methyl)azetidin-3-amine] | 1 to 50 | – | 1 to 50 | – | – | 0.1 to 50 | 50 to 200 | 0.1 to 50 | 200 to 1000
3 | C[C@@H](Oc1ccc2[nH]nc(-c3cnc(N4CC(N)(Cc5ccn(C)n5)C4)c(F)c3)c2c1)c1c(Cl)cncc1Cl [Example 282, (R)-1-(5-(5-(1-(3,5-dichloropyridin-4-yl)ethoxy)-1H-indazol-3-yl)-3-fluoropyridin-2-yl)-3-((1-methyl-1H-pyrazol-3-yl)methyl)azetidin-3-amine] | 1 to 50 | – | 1 to 50 | – | – | 50 to 200 | 50 to 200 | 0.1 to 50 | 50 to 200
4 | C[C@@H](Oc1ccc2[nH]nc(-c3cnc(N4CC(N)(Cc5ccnn5C)C4)c(F)c3)c2c1)c1c(Cl)cncc1Cl [Example 283, (R)-1-(5-(5-(1-(3,5-dichloropyridin-4-yl)ethoxy)-1H-indazol-3-yl)-3-fluoropyridin-2-yl)-3-((1-methyl-1H-pyrazol-5-yl)methyl)azetidin-3-amine] | 1 to 50 | – | 1 to 50 | – | – | 0.1 to 50 | 0.1 to 50 | 0.1 to 50 | 0.1 to 50
5 | C[C@@H](Oc1ccc2[nH]nc(-c3cnc(N4CC(N)(CCF)C4)c(F)c3)c2c1)c1c(Cl)cncc1Cl [Example 284, (R)-1-(5-(5-(1-(3,5-dichloropyridin-4-yl)ethoxy)-1H-indazol-3-yl)-3-fluoropyridin-2-yl)-3-(2-fluoroethyl)azetidin-3-amine] | 1 to 50 | – | 1 to 50 | – | – | 0.1 to 50 | 50 to 200 | 0.1 to 50 | 0.1 to 50
6 | C[C@@H](Oc1ccc2[nH]nc(-c3ccc(N4CC(N)(CCC#N)C4)nn3)c2c1)c1c(Cl)cncc1Cl [Example 285, (R)-3-(3-amino-1-(6-(5-(1-(3,5-dichloropyridin-4-yl)ethoxy)-1H-indazol-3-yl)pyridazin-3-yl)azetidin-3-yl)propanenitrile] | 1 to 50 | – | 1 to 50 | – | – | 0.1 to 50 | 0.1 to 50 | 0.1 to 50 | 200 to 1000
7 | C[C@@H](Oc1ccc2[nH]nc(-c3ccc(N4CC(N)(Cc5cnn(C)c5)C4)nn3)c2c1)c1c(Cl)cncc1Cl [Example 289, (R)-1-(6-(5-(1-(3,5-dichloropyridin-4-yl)ethoxy)-1H-indazol-3-yl)pyridazin-3-yl)-3-((1-methyl-1H-pyrazol-4-yl)methyl)azetidin-3-amine] | 1 to 50 | – | 1 to 50 | – | – | 50 to 200 | 200 to 1000 | 0.1 to 50 | 200 to 1000
8 | C[C@@H](Oc1ccc2[nH]nc(-c3cnc(N4CC(N)(Cc5cnn(C)c5)C4)c(F)c3)c2c1)c1c(Cl)cncc1Cl [Example 290, (R)-1-(5-(5-(1-(3,5-dichloropyridin-4-yl)ethoxy)-1H-indazol-3-yl)-3-fluoropyridin-2-yl)-3-((1-methyl-1H-pyrazol-4-yl)methyl)azetidin-3-amine] | 1 to 50 | – | 1 to 50 | – | – | 50 to 200 | 50 to 200 | 0.1 to 50 | 50 to 200

Now from value to molecule:

Row | Kd [1] [nM] | Kd [2] [nM] | Kd [3] [nM] | Kd [4] [nM] | Kd [5] [nM] | IC50 [6] [nM] | IC50 [7] [nM] | IC50 [8] [nM] | IC50 [9] [nM] | Structure (SMILES)
9 | 1 to 50 | 1 to 50 | 1 to 50 | 1 to 50 | 1 to 50 | 0.1 to 50 | 50 to 200 | 0.1 to 50 | 50 to 200 | C[C@@H](Oc1ccc2[nH]nc(-c3cnc(N4CC(C)(NC(=O)CN(C)C)C4)c(F)c3)c2c1)c1c(Cl)cncc1Cl (stereo in doubt) [Example 156, N-(1-(5-(5-(1-(3,5-dichloropyridin-4-yl)ethoxy)-1H-indazol-3-yl)-3-fluoropyridin-2-yl)-3-methylazetidin-3-yl)-2-(dimethylamino)-acetamide]
10 | 1 to 50 | 1 to 50 | 1 to 50 | 1 to 50 | 1 to 50 | 50 to 200 | 50 to 200 | 0.1 to 50 | 200 to 1000 | CNC1(C)CN(c2ccc(-c3n[nH]c4ccc(O[C@H](C)c5c(Cl)cnc(C)c5Cl)cc34)cn2)C1 [Example 76, 1-[5-[5-[(1R)-1-(3,5-dichloro-2-methyl-4-pyridyl)ethoxy]-1H-indazol-3-yl]-2-pyridyl]-N,3-dimethyl-azetidin-3-amine]
11 | 1 to 50 | 1 to 50 | 1 to 50 | 1 to 50 | 1 to 50 | 50 to 200 | 200 to 1000 | 0.1 to 50 | 200 to 1000 | Cc1ncc(Cl)c([C@@H](C)Oc2ccc3[nH]nc(-c4ccc(N5CC(C)(N6CCOCC6)C5)nc4)c3c2)c1Cl [Example 77, 4-[1-[5-[5-[(1R)-1-(3,5-dichloro-2-methyl-4-pyridyl)ethoxy]-1H-indazol-3-yl]-2-pyridyl]-3-methyl-azetidin-3-yl]morpholine]
12 | 1 to 50 | – | 1 to 50 | – | – | 0.1 to 50 | 50 to 200 | 0.1 to 50 | 200 to 1000 | C[C@@H](Oc1ccc2[nH]nc(-c3ccc(N4CC(C)(OCCN5CCCC5)C4)nn3)c2c1)c1c(Cl)cncc1Cl [Example 269, (R)-5-(1-(3,5-dichloropyridin-4-yl)ethoxy)-3-(6-(3-methyl-3-(2-(pyrrolidin-1-yl)ethoxy)azetidin-1-yl)pyridazin-3-yl)-1H-indazole]
13 | 1 to 50 | – | 1 to 50 | – | – | 0.1 to 50 | 50 to 200 | 0.1 to 50 | 0.1 to 50 | C[C@@H](Oc1ccc2[nH]nc(-c3cnc(N4CC(N)(CCS(C)(=O)=O)C4)c(F)c3)c2c1)c1c(Cl)cncc1Cl [Example 270, (R)-1-(5-(5-(1-(3,5-dichloropyridin-4-yl)ethoxy)-1H-indazol-3-yl)-3-fluoropyridin-2-yl)-3-(2-(methylsulfonyl)ethyl)azetidin-3-amine]
14 | 1 to 50 | – | 1 to 50 | – | – | 50 to 200 | 200 to 1000 | 0.1 to 50 | 0.1 to 50 | CC(C)=CCC1(N)CN(c2ncc(-c3n[nH]c4ccc(O[C@H](C)c5c(Cl)cncc5Cl)cc34)cc2F)C1 [Example 271, (R)-1-(5-(5-(1-(3,5-dichloropyridin-4-yl)ethoxy)-1H-indazol-3-yl)-3-fluoropyridin-2-yl)-3-(3-methylbut-2-en-1-yl)azetidin-3-amine]
15 | 1 to 50 | – | 1 to 50 | – | – | 50 to 200 | 50 to 200 | 0.1 to 50 | 200 to 1000 | C[C@@H](Oc1ccc2[nH]nc(-c3ccc(N4CC(N)(CC5CC5)C4)nn3)c2c1)c1c(Cl)cncc1Cl [Example 272, (R)-3-(cyclopropylmethyl)-1-(6-(5-(1-(3,5-dichloropyridin-4-yl)ethoxy)-1H-indazol-3-yl)pyridazin-3-yl)azetidin-3-amine]
16 | 1 to 50 | – | 1 to 50 | – | – | 0.1 to 50 | 0.1 to 50 | 0.1 to 50 | 0.1 to 50 | COCCC1(N)CN(c2ncc(-c3n[nH]c4ccc(O[C@H](C)c5c(Cl)cncc5Cl)cc34)cc2F)C1 [Example 273, (R)-1-(5-(5-(1-(3,5-dichloropyridin-4-yl)ethoxy)-1H-indazol-3-yl)-3-fluoropyridin-2-yl)-3-(2-methoxy-ethyl)azetidin-3-amine]
17 | 1 to 50 | – | 1 to 50 | – | – | 0.1 to 50 | 50 to 200 | 0.1 to 50 | 200 to 1000 | C=CCC1(N)CN(c2ccc(-c3n[nH]c4ccc(O[C@H](C)c5c(Cl)cncc5Cl)cc34)nn2)C1 [Example 274, (R)-3-allyl-1-(6-(5-(1-(3,5-dichloropyridin-4-yl)ethoxy)-1H-indazol-3-yl)pyridazin-3-yl)azetidin-3-amine]
